Measurements published in PubChem BioAssay (NCI).
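The concentration for 50% growth inhibition is given as GI50. TGI denotes the concentration required for complete inhibition of growth.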

Columns and labels:
Assay in all cases: growth of human tumour cells (NCI), 384-well format
MOLT-4 leukemia = tested on: MOLT-4 leukemia
A498 renal = tested on: A498 renal
U251 glioblastoma = tested on: U251 glioblastoma
NCI-H322M lung = tested on: NCI-H322M lung
BT-549 breast = tested on: BT-549 breast
HT29 colon = tested on: HT29 colon
SK-OV-3 ovarian = tested on: SK-OV-3 ovarian
LOX IMVI melanoma = tested on: LOX IMVI melanoma
UACC-257 melanoma = tested on: UACC-257 melanoma
MALME-3M melanoma = tested on: MALME-3M melanoma
SF-539 CNS = tested on: SF-539 CNS
EKVX NSCLC = tested on: EKVX NSCLC
KM12 colon = tested on: KM12 colon
HCT-116 colon = tested on: HCT-116 colon
OVCAR-4 ovarian = tested on: OVCAR-4 ovarian
ACHN renal = tested on: ACHN renal
M14 melanoma = tested on: M14 melanoma
SN12C renal = tested on: SN12C renal
SF-295 CNS = tested on: SF-295 CNS
TK-10 renal = tested on: TK-10 renal
RPMI-8226 leukemia = tested on: RPMI-8226 leukemia
NCI-H522 lung = tested on: NCI-H522 lung
SNB-75 CNS = tested on: SNB-75 CNS
HL-60(TB) leukemia = tested on: HL-60(TB) leukemia
PC-3 prostate = tested on: PC-3 prostate
HOP-62 NSCLC = tested on: HOP-62 NSCLC
HOP-92 NSCLC = tested on: HOP-92 NSCLC
HCT-15 colon = tested on: HCT-15 colon
786-0 renal = tested on: 786-0 renal
OVCAR-8 ovarian = tested on: OVCAR-8 ovarian
CAKI-1 renal = tested on: CAKI-1 renal
HS 578T breast = tested on: HS 578T breast
SK-MEL-5 melanoma = tested on: SK-MEL-5 melanoma
HCC-2998 colon = tested on: HCC-2998 colon
A549 NSCLC = tested on: A549 NSCLC
IGROV1 ovarian = tested on: IGROV1 ovarian
NCI-H460 NSCLC = tested on: NCI-H460 NSCLC
NCI-H23 lung = tested on: NCI-H23 lung
NCI-H226 lung = tested on: NCI-H226 lung
SK-MEL-28 melanoma = tested on: SK-MEL-28 melanoma
OVCAR-3 ovarian = tested on: OVCAR-3 ovarian
SNB-19 CNS = tested on: SNB-19 CNS
MCF7 breast = tested on: MCF7 breast
K-562 leukemia = tested on: K-562 leukemia
RXF 393 renal = tested on: RXF 393 renal
MDA-MB-435 melanoma = tested on: MDA-MB-435 melanoma
UACC-62 melanoma = tested on: UACC-62 melanoma
SW-620 colon = tested on: SW-620 colon
NCI/ADR-RES ovarian = tested on: NCI/ADR-RES ovarian
MDA-MB-468 breast = tested on: MDA-MB-468 breast
COLO 205 colon = tested on: COLO 205 colon
DU-145 prostate = tested on: DU-145 prostate
CCRF-CEM leukemia = tested on: CCRF-CEM leukemia
SF-268 CNS = tested on: SF-268 CNS
SK-MEL-2 melanoma = tested on: SK-MEL-2 melanoma

N#Cc1ccc(OC(=O)Nc2cc(Cl)cc(Cl)c2)cc1 showed a GI50 (MOLT-4 leukemia) of 2 µM, a TGI (MOLT-4 leukemia) of 3.7 µM and a GI50 (A498 renal) of 3.47 µM. It also gave a TGI (A498 renal) of 9.21 µM, a GI50 (U251 glioblastoma) of 3.43 µM and a TGI (U251 glioblastoma) of 7.96 µM. The GI50 (NCI-H322M lung) was 11.6 µM, the TGI (NCI-H322M lung) was 29.4 µM and the GI50 (BT-549 breast) was 13.4 µM. For the same molecule, the TGI (BT-549 breast) was 30.8 µM, the GI50 (HT29 colon) was 4.43 µM and the TGI (HT29 colon) was 17.3 µM. For the same molecule, the GI50 (SK-OV-3 ovarian) was 6 µM, the TGI (SK-OV-3 ovarian) was 19.9 µM and the GI50 (LOX IMVI melanoma) was 3.81 µM. For the same molecule, the TGI (LOX IMVI melanoma) was 12.7 µM, the GI50 (UACC-257 melanoma) was 6.12 µM and the TGI (UACC-257 melanoma) was 15.9 µM. The GI50 (MALME-3M melanoma) was 5.9 µM, the TGI (MALME-3M melanoma) was 16.4 µM and the GI50 (SF-539 CNS) was 4.28 µM. The TGI (SF-539 CNS) was 13.4 µM, the GI50 (EKVX NSCLC) was 3.92 µM and the TGI (EKVX NSCLC) was 12.6 µM. The GI50 (KM12 colon) was 3.74 µM, the TGI (KM12 colon) was 11 µM and the GI50 (HCT-116 colon) was 3.12 µM. The TGI (HCT-116 colon) was 7.62 µM, the GI50 (OVCAR-4 ovarian) was 8.27 µM and the TGI (OVCAR-4 ovarian) was 62.2 µM. It also gave a GI50 (ACHN renal) of 3.51 µM, a TGI (ACHN renal) of 10 µM and a GI50 (M14 melanoma) of 5.38 µM. The TGI (M14 melanoma) was 15 µM, the GI50 (SN12C renal) was 4 µM and the TGI (SN12C renal) was 13.2 µM. For the same molecule, the GI50 (SF-295 CNS) was 3.07 µM, the TGI (SF-295 CNS) was 8.78 µM and the GI50 (TK-10 renal) was 4.01 µM. The TGI (TK-10 renal) was 13.1 µM, the GI50 (RPMI-8226 leukemia) was 2.04 µM and the TGI (RPMI-8226 leukemia) was 3.48 µM. It also gave a GI50 (NCI-H522 lung) of 3.23 µM, a TGI (NCI-H522 lung) of 7.63 µM and a GI50 (SNB-75 CNS) of 3.32 µM. The TGI (SNB-75 CNS) was 9.94 µM, the GI50 (HL-60(TB) leukemia) was 1.77 µM and the TGI (HL-60(TB) leukemia) was 3.16 µM. The GI50 (PC-3 prostate) was 3.27 µM, the TGI (PC-3 prostate) was 7.27 µM and the GI50 (HOP-62 NSCLC) was 3.03 µM. The TGI (HOP-62 NSCLC) was 6.05 µM, the GI50 (HOP-92 NSCLC) was 3.23 µM and the TGI (HOP-92 NSCLC) was 7.12 µM. For the same molecule, the GI50 (HCT-15 colon) was 4.14 µM, the TGI (HCT-15 colon) was 12.1 µM and the GI50 ([…]-0 renal) was 7.03 µM. For the same molecule, the TGI (786-0 renal) was 20.1 µM, the GI50 (OVCAR-8 ovarian) was 4.1 µM and the TGI (OVCAR-8 ovarian) was 12.6 µM. For the same molecule, the GI50 (CAKI-1 renal) was 3.69 µM, the TGI (CAKI-1 renal) was 10.2 µM and the GI50 (HS 578T breast) was 7.57 µM. It also gave a TGI (HS 578T breast) of 20.5 µM, a GI50 (SK-MEL-5 melanoma) of 4.36 µM and a TGI (SK-MEL-5 melanoma) of 13.2 µM. It also gave a GI50 (HCC-2998 colon) of 13.2 µM, a TGI (HCC-2998 colon) of 30.8 µM and a GI50 (A549 NSCLC) of 3.78 µM. It also gave a TGI (A549 NSCLC) of 12.7 µM, a GI50 (IGROV1 ovarian) of 4.43 µM and a TGI (IGROV1 ovarian) of 15.3 µM. It also gave a GI50 (NCI-H460 NSCLC) of 2.84 µM, a TGI (NCI-H460 NSCLC) of 6.62 µM and a GI50 (NCI-H23 lung) of 2.23 µM. For the same molecule, the TGI (NCI-H23 lung) was 4.16 µM, the GI50 (NCI-H226 lung) was 3.27 µM and the TGI (NCI-H226 lung) was 8.97 µM. For the same molecule, the GI50 (SK-MEL-28 melanoma) was 13.1 µM, the TGI (SK-MEL-28 melanoma) was 30.6 µM and the GI50 (OVCAR-3 ovarian) was 2.44 µM. It also gave a TGI (OVCAR-3 ovarian) of 5.16 µM, a GI50 (SNB-19 CNS) of 4.74 µM and a TGI (SNB-19 CNS) of 19.1 µM. The GI50 (MCF7 breast) was 3.75 µM, the TGI (MCF7 breast) was 16 µM and the GI50 (K-562 leukemia) was 7.71 µM. The TGI (K-562 leukemia) was 93.1 µM, the GI50 (RXF 393 renal) was 6.26 µM and the TGI (RXF 393 renal) was 17.7 µM. For the same molecule, the GI50 (MDA-MB-435 melanoma) was 8.94 µM, the TGI (MDA-MB-435 melanoma) was 23.6 µM and the GI50 (UACC-62 melanoma) was 7.22 µM. The TGI (UACC-62 melanoma) was 19.3 µM, the GI50 (SW-620 colon) was 4.54 µM and the TGI (SW-620 colon) was 14.6 µM. The GI50 (NCI/ADR-RES ovarian) was 3.79 µM, the TGI (NCI/ADR-RES ovarian) was 9.65 µM and the GI50 (MDA-MB-468 breast) was 9.04 µM. The TGI (MDA-MB-468 breast) was 20.9 µM, the GI50 (COLO 205 colon) was 6.65 µM and the TGI (COLO 205 colon) was 23.9 µM. For the same molecule, the GI50 (DU-145 prostate) was 4.29 µM, the TGI (DU-145 prostate) was 55.5 µM and the GI50 (CCRF-CEM leukemia) was 2.19 µM. The TGI (CCRF-CEM leukemia) was 5.31 µM, the GI50 (SF-268 CNS) was 5.61 µM and the TGI (SF-268 CNS) was 21.6 µM. It also gave a GI50 (SK-MEL-2 melanoma) of 2.84 µM and a TGI (SK-MEL-2 melanoma) of 5.82 µM.
